Test results: US20230061736A1, “GPR119 AGONISTS” (Kallyope, Inc., priority 2019, published 2023)

Target: T1, human GPR119 (hGPR119) (Homo sapiens, UniProt Q8TDV5)
T1 construct: expressed in transfected cells
T1 sequence (Q8TDV5 1-335): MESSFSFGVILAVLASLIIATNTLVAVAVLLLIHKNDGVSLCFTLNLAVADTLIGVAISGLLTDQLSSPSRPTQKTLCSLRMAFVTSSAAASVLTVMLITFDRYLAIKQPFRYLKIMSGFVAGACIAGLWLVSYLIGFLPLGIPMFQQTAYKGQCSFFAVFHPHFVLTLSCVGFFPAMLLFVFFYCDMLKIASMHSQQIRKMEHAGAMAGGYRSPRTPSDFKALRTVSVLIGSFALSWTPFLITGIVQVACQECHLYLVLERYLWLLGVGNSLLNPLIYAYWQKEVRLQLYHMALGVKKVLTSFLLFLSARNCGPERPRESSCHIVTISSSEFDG
Assay: cAMP accumulation assay (cAMP Gs dynamic HTRF kit)
Assay type: cell-based
Conditions: CHO-K1 cells stably expressing hGPR119, 4-parameter fit; for Emax: 1 h, % activity normalized to Max/Min controls; for EC50: cAMP accumulation
Method in brief: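 Read-out is HTRF 665/620 nm ratio after 1 h detection at ambient temperature, converted to % activity against positive and negative controls, EC50 and Max activity by 4-parameter fit. Compounds were titrated onto ~10,000 thawed hGPR119-CHO-K1 cells/well for 60 min at 37° C/5% CO2.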

Row | Compound | Emax [%] | EC50 [nM]
1 | CC(C)OC(=O)N1CCC2(CC1)CC2CCCOc1ccc(CC(=O)N2CC(CNC[C@H](O)[C@@H](O)[C@H](O)[C@H](O)CO)C2)c(F)c1 (stereo partly drawn) [Example 145, isopropyl 2-[3-[3-fluoro-4-[2-oxo-2-[3-[[[(2S,3R,4R,5R)-2,3,4,5,6-pentahydroxyhexyl]amino]methyl]azetidin-1-yl]ethyl]phenoxy]propyl]-6-azaspiro[2.5]octane-6-carboxylate] | 50 to 100 | 1000 to 10000
2 | CC(C)OC(=O)N1CCC2(CC1)CC2CCCOc1cc(F)c(CC(=O)N2CC(CNC[C@H](O)[C@@H](O)[C@H](O)[C@H](O)CO)C2)c(F)c1 (stereo partly drawn) [Example 146, isopropyl 2-[3-[3,5-difluoro-4-[2-oxo-2-[3-[[[(2S,3R,4R,5R)-2,3,4,5,6-pentahydroxyhexyl]amino]methyl]azetidin-1-yl]ethyl]phenoxy]propyl]-6-azaspiro[2.5]octane-6-carboxylate] | 100 to 130 | 100 to 1000
3 | O=C(Cc1ccc(OCCCC2CCN(c3ncc(Cl)cn3)CC2)cc1F)N1CC[C@@H](CNCC(CO)(CO)CO)C1 [Example 147, 2-[4-[3-[1-(5-chloropyrimidin-2-yl)-4-piperidyl]propoxy]-2-fluoro-phenyl]-1-[(3S)-3-[[[3-hydroxy-2,2-bis(hydroxymethyl)propyl]amino]methyl]pyrrolidin-1-yl]ethanone] | 100 to 130 | ≤ 100
4 | O=C(Cc1ccc(OCCCC2CCN(c3ncc(Cl)cn3)CC2)cc1F)N1CC[C@@H](CNC(CO)(CO)CO)C1 [Example 148, 2-[4-[3-[1-(5-chloropyrimidin-2-yl)-4-piperidyl]propoxy]-2-fluoro-phenyl]-1-[(3S)-3-[[[2-hydroxy-1,1-bis(hydroxymethyl)ethyl]amino]methyl]pyrrolidin-1-yl]ethanone] | ≥ 130 | ≤ 100
5 | O=C(Cc1c(F)cc(OCCCC2CCN(c3ncc(Cl)cn3)CC2)cc1F)N1CC[C@@H](CNC(CO)(CO)CO)C1 [Example 149, 2-[4-[3-[1-(5-chloropyrimidin-2-yl)-4-piperidyl]propoxy]-2,6-difluoro-phenyl]-1-[(3S)-3-[[[2-hydroxy-1,1-bis(hydroxymethyl)ethyl]amino]methyl]pyrrolidin-1-yl]ethanone] | ≥ 130 | ≤ 100
6 | O=C(Cc1c(F)cc(OCCCC2CCN(c3ncc(Cl)cn3)CC2)cc1F)N1CC[C@@H](CNCC(O)(CO)CO)C1 [Example 150, 2-[4-[3-[1-(5-chloropyrimidin-2-yl)-4-piperidyl]propoxy]-2,6-difluoro-phenyl]-1-[(3S)-3-[[[2,3-dihydroxy-2-(hydroxymethyl)propyl]amino]methyl]pyrrolidin-1-yl]ethanone] | 100 to 130 | ≤ 100
7 | CCOc1cnc(N2CCC(CCCOc3ccc(CC(=O)N4CC[C@@H](CNC(CO)(CO)CO)C4)c(F)c3)CC2)nc1 [Example 152, 2-[4-[3-[1-(5-ethoxypyrimidin-2-yl)-4-piperidyl]propoxy]-2-fluoro-phenyl]-1-[(3S)-3-[[[2-hydroxy-1,1-bis(hydroxymethyl)ethyl]amino]methyl]pyrrolidin-1-yl]ethanone] | ≥ 130 | ≤ 100
8 | CCOc1cnc(N2CCC(CCCOc3ccc(CC(=O)N4CC[C@@H](CNCC(O)(CO)CO)C4)c(F)c3)CC2)nc1 [Example 153, 2-[4-[3-[1-(5-ethoxypyrimidin-2-yl)-4-piperidyl]propoxy]-2-fluoro-phenyl]-1-[(3S)-3-[[[2,3-dihydroxy-2-(hydroxymethyl)propyl]amino]methyl]pyrrolidin-1-yl]ethanone] | ≥ 130 | ≤ 100
9 | CCOc1cnc(N2CCC(CCCOc3ccc(CC(=O)N4CC[C@@H](CNCC(CO)(CO)CO)C4)c(F)c3)CC2)nc1 [Example 154, 2-[4-[3-[1-(5-ethoxypyrimidin-2-yl)-4-piperidyl]propoxy]-2-fluoro-phenyl]-1-[(3S)-3-[[[3-hydroxy-2,2-bis(hydroxymethyl)propyl]amino]methyl]pyrrolidin-1-yl]ethanone] | 100 to 130 | ≤ 100
10 | CCOc1cnc(N2CCC(CCCOc3cc(F)c(CC(=O)N4CC[C@@H](CNCC(O)(CO)CO)C4)c(F)c3)CC2)nc1 [Example 156, 2-[4-[3-[1-(5-ethoxypyrimidin-2-yl)-4-piperidyl]propoxy]-2,6-difluoro-phenyl]-1-[(3S)-3-[[[2,3-dihydroxy-2-(hydroxymethyl)propyl]amino]methyl]pyrrolidin-1-yl]ethanone] | ≥ 130 | ≤ 100
11 | COCc1cnc(N2CCC([C@H]3C[C@H]3CCOc3ccc(CC(=O)N4CC[C@@H](CNCC(O)(CO)CO)C4)c(F)c3)CC2)nc1 [Example 162, 2-[2-fluoro-4-[2-[(1S,2R)-2-[1-[5-(methoxymethyl)pyrimidin-2-yl]-4-piperidyl]cyclopropyl]ethoxy]phenyl]-1-[(3S)-3-[[[2,3-dihydroxy-2-(hydroxymethyl)propyl]amino]methyl]pyrrolidin-1-yl]ethanone] | 100 to 130 | ≤ 100

Second part, the compound after the results:

Row | Emax [%] | EC50 [nM] | Compound
12 | ≥ 130 | ≤ 100 | O=C(Cc1c(F)cc(OCCCC2CCN(c3ncc(Cl)cn3)CC2)cc1F)N1CC[C@@H](CNCC(CO)(CO)CO)C1 [Example 151, 2-[4-[3-[1-(5-chloropyrimidin-2-yl)-4-piperidyl]propoxy]-2,6-difluoro-phenyl]-1-[(3S)-3-[[[3-hydroxy-2,2-bis(hydroxymethyl)propyl]amino]methyl]pyrrolidin-1-yl]ethanone]
13 | ≥ 130 | ≤ 100 | CCOc1cnc(N2CCC(CCCOc3cc(F)c(CC(=O)N4CC[C@@H](CNCC(CO)(CO)CO)C4)c(F)c3)CC2)nc1 [Example 157, 2-[4-[3-[1-(5-ethoxypyrimidin-2-yl)-4-piperidyl]propoxy]-2,6-difluoro-phenyl]-1-[(3S)-3-[[[3-hydroxy-2,2-bis(hydroxymethyl)propyl]amino]methyl]pyrrolidin-1-yl]ethanone]
14 | 100 to 130 | ≤ 100 | COCc1cnc(N2CCC(CCCOc3cc(F)c(CC(=O)N4CC[C@@H](CNC(CO)(CO)CO)C4)c(F)c3)CC2)nc1 [Example 158, 2-[2,6-difluoro-4-[3-[1-[5-(methoxymethyl)pyrimidin-2-yl]-4-piperidyl]propoxy]phenyl]-1-[(3S)-3-[[[2-hydroxy-1,1-bis(hydroxymethyl)ethyl]amino]methyl]pyrrolidin-1-yl]ethanone]
15 | 100 to 130 | ≤ 100 | COCc1cnc(N2CCC(CCCOc3cc(F)c(CC(=O)N4CC[C@@H](CNCC(O)(CO)CO)C4)c(F)c3)CC2)nc1 [Example 159, 2-[2,6-difluoro-4-[3-[1-[5-(methoxymethyl)pyrimidin-2-yl]-4-piperidyl]propoxy]phenyl]-1-[(3S)-3-[[[2,3-dihydroxy-2-(hydroxymethyl)propyl]amino]methyl]pyrrolidin-1-yl]ethanone]
16 | ≥ 130 | ≤ 100 | COCc1cnc(N2CCC(CCCOc3cc(F)c(CC(=O)N4CC[C@@H](CNCC(CO)(CO)CO)C4)c(F)c3)CC2)nc1 [Example 160, 2-[2,6-difluoro-4-[3-[1-[5-(methoxymethyl)pyrimidin-2-yl]-4-piperidyl]propoxy]phenyl]-1-[(3S)-3-[[[3-hydroxy-2,2-bis(hydroxymethyl)propyl]amino]methyl]pyrrolidin-1-yl]ethanone]
